Several values for one entry are separate records, joined by “and”; a condition that tells them apart may be missing. Equal values may be shown once. Entries after “also recorded” stand apart in the source; their conditions may differ.
Key:
[1] = test system: unresectable, locally advanced, or metastatic biliary tract cancer; assay: TOPAZ-1 phase 3 study: efficacy of durvalumab or placebo plus gemcitabine and cisplatin (OS, PFS, tumor response per RECIST v1.1); assay type: in vivo, human; conditions: for Difference in overall survival: versus placebo plus gemcitabine and cisplatin; for Objective response rate: investigator assessment, RECIST v1.1, patients with measurable disease at baseline
Method: This is a randomized, double-blind, placebo controlled, multi-center, global, Phase III study which determined the efficacy and safety of first-line treatment with durvalumab in combination with gemcitabine/cisplatin versus placebo in combination with gemcitabine/cisplatin in patients with previously untreated, unresectable, locally advanced, or metastatic BTC.
Arm A: Durvalumab plus gemcitabine/cisplatin combination therapy. Durvalumab 1500 mg via intravenous (IV) infusion q3w, starting on Cycle 1 in combination with cisplatin 25 mg/m^2 and gemcitabine 1000 mg/m^2 (each administered on Days 1 and 8 q3w) up to 8 cycles, followed by durvalumab 1500 mg as monotherapy q4w until clinical progression or RECIST 1.1-defined radiological progressive disease (PD), unless there is unacceptable toxicity, withdrawal of consent, or another discontinuation criterion is met.
Arm B: Placebo plus gemcitabine/cisplatin therapy. Placebo via IV infusion q3w, starting on Cycle 1 in combination with cisplatin 25 mg/m^2 and gemcitabine 1000 mg/m^2 (each administered on Days 1 and 8 q3w) up to 8 cycles, followed by placebo monotherapy q4w until clinical progression or RECIST 1.1-defined radiological PD, unless there is unacceptable toxicity, withdrawal of consent, or another discontinuation criterion is met.
Adults aged ≥18 years with histologically confirmed unresectable, locally advanced, or metastatic adenocarcinoma of the biliary tract, including intrahepatic or extrahepatic cholangiocarcinoma and gallbladder carcinoma, were eligible for inclusion. Eligible patients included those with previously untreated disease that was unresectable or metastatic at initial diagnosis and those who developed recurrent disease >6 months after surgery with curative intent and >6 months after the completion of adjuvant therapy. Other inclusion criteria included an Eastern Cooperative Oncology Group (ECOG) performance status of 0 or 1, ≥1 measurable lesion per Response Evaluation Criteria in Solid Tumors (RECIST) v1.1, and no prior exposure to immune-meditated therapy. Patients were excluded if they had ampullary carcinoma, active or prior documented autoimmune or inflammatory disorders, or known allergy or hypersensitivity to any study treatment.
TOPAZ-1 was a phase 3, randomized, double-blind, placebo-controlled, global study. Patients were randomly assigned in a 1:1 ratio to receive durvalumab in combination with gemcitabine and cisplatin or placebo in combination with gemcitabine and cisplatin.
Baseline tumor assessments were performed using images acquired≤28 days before randomization. During the study period, tumor assessments were performed every 6 weeks (±1 week) for the first 24 weeks after randomization, and then every 8 weeks (±1 week) thereafter, until radiological disease progression, followed by ≥1 additional follow-up scan. Survival assessments were performed every 2 months following treatment discontinuation. Patients on treatment or in survival follow-up were contacted following the data cutoff for the interim analysis to provide complete survival data. Newly acquired tumor biopsy samples or archival samples taken≤3 years prior to screening were obtained by an image-guided core needle or by excision from all screened patients. Tissue samples were retrospectively evaluated for programmed cell death ligand 1 (PD-L1) expression by the Ventana PD-L1 (SP263) immunohistochemistry assay in all randomized patients using the tumor area positivity (TAP) score method. “TAP” is the proportion of tumor and/or immune cells with PD-L1 staining at any intensity and can be used interchangeably with “TIP.” A TAP score of ≥1% was defined as PD-L1 staining of any intensity in tumor cell membranes and/or tumor-associated immune cells covering ≥1% of the tumor area. A TAP score of <1% was defined as PD-L1 staining of any intensity in tumor cell membranes and/or tumor-associated immune cells covering <1% of tumor area. […]

[2] = test system: xenograft model; conditions: via a T-cell dependent mechanism; cited from earlier work
[3] = molecular target: PD-L1 (Homo sapiens, UniProt Q9NZQ7); conditions: in vitro; cited from earlier work
Chain of PD-L1 (Q9NZQ7 19-290): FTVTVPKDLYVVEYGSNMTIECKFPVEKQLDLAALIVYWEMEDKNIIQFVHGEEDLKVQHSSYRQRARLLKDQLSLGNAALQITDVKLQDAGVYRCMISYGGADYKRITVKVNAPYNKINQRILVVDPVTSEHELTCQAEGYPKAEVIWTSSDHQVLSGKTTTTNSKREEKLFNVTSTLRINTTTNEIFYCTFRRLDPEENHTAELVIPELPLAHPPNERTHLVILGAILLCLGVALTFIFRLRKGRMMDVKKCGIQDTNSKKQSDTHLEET

[4] = patients with objective response

Durvalumab plus Gemcitabine and Cisplatin: Durvalumab 1500 mg IV q3w with cisplatin 25 mg/m^2 and gemcitabine 1000 mg/m^2 up to 8 cycles, then durvalumab monotherapy q4w
Abdominal pain upper, Grade 3/4 (adverse events of any causality): 0 no.
Adrenal insufficiency, Grade 3 or 4 (immune-mediated adverse events): 0 no.
Hyperthyroid events, Grade 3 or 4 (immune-mediated adverse events): 0 no.
Hypophysitis, Grade 3 or 4 (immune-mediated adverse events): 0 no.
Hypothyroid events, Grade 3 or 4 (immune-mediated adverse events): 0 no.
Myositis, Any Grade (immune-mediated adverse events): 0 no.
Myositis, Grade 3 or 4 (immune-mediated adverse events): 0 no.
Pancreatic events, Grade 3 or 4 (immune-mediated adverse events): 0 no.
Renal events, Any Grade (immune-mediated adverse events): 0 no.
Renal events, Grade 3 or 4 (immune-mediated adverse events): 0 no.
Thyroiditis, Grade 3 or 4 (immune-mediated adverse events): 0 no.
Difference in overall survival ([1]; at 12 months): 6%
Difference in overall survival ([1]; at 18 months): 10%
Difference in overall survival ([1]; at 24 months): 15%
Median overall survival (95% CI) ([1]; full analysis set): 12.8 months
Objective response rate ([1]; listed as durvalumab+GemCis): 26.7%
Median duration of response [1, 4]: 6.4 mo
Median time to response [1, 4]: 1.6 mo
Percentage of patients with continued response ([1]; ≥3 months): 88.9%
Percentage of patients with continued response ([1]; ≥6 months): 59.3%
Percentage of patients with continued response ([1]; ≥9 months): 32.6%
Percentage of patients with continued response ([1]; ≥12 months): 26.1%

durvalumab: antibody that selectively binds PD-L1 and blocks the binding of PD-L1 to PD-1 and CD80 receptors
Tumor growth in a xenograft model [2]: inhibits tumor growth
Additional toxicity to that observed with chemotherapy (in vivo): did not add additional toxicity
Anemia, Any Grade (in vivo): 48.2%
Any immune-mediated adverse event, Any Grade (in vivo): 12.7%
Any immune-mediated adverse event, Grade 3 or 4 (in vivo): 2.4%
Constipation, Any Grade (in vivo): 32.0%
Events in the other rare/miscellaneous category of immune-mediated adverse events (in vivo): immune-mediated arthritis
Nausea, Any Grade (in vivo): 40.2%
Neutropenia, Any Grade (in vivo): 31.7%
Treatment-related adverse event leading to discontinuation of any study treatment (in vivo): 8.9%
PD-L1-mediated suppression of human T-cell activation [3]: can relieve PD-L1-mediated suppression of human T-cell activation
Benefit of the addition of durvalumab to gemcitabine and cisplatin, subgroup analysis of overall survival ([1]; FIG. 8): observed across all subgroups
Benefit of the addition of durvalumab to gemcitabine and cisplatin, overall survival by PD-L1 expression ([1]; TAP score, Ventana PD-L1 (SP263) assay): observed across PD-L1 expression; also recorded: observed regardless of PD-L1 expression
Overall survival hazard ratio (95% CI) ([1]; after 6 months, durvalumab versus placebo): 0.74 (0.58-0.94)
Estimated overall survival rate (95% CI) ([1]; at 12 months): 54.1%
Estimated overall survival rate (95% CI) ([1]; at 18 months): 35.1%
Estimated overall survival rate (95% CI) ([1]; at 24 months): 24.9%
Overall survival hazard ratio ([1]; durvalumab versus placebo, each plus gemcitabine and cisplatin, 95% CI 0.66-0.97, P=0.021): 0.80
Hazard ratio for progression-free survival ([1]; durvalumab versus placebo, 95% CI 0.63-0.89, P=0.001): 0.75
Objective response rate odds ratio ([1]; durvalumab versus placebo, 95% CI 1.11-2.31): 1.60
Median (95% CI) progression-free survival ([1]; full analysis set): 7.2 months and 7.2 (6.7-7.4) months
Median overall survival (95% CI) ([1]; full analysis set): 12.8 (11.1-14.0) months
Objective response rate [1]: 26.7%
Hazard ratio for overall survival ([1]; patients with PD-L1 TAP score of >1%, durvalumab versus placebo, 95% CI 0.61-1.00): 0.79
Hazard ratio for overall survival ([1]; patients with TAP score <1%, durvalumab versus placebo, 95% CI 0.60-1.23): 0.86
Overall survival hazard ratio (95% CI) ([1]; up to 6 months, durvalumab versus placebo): 0.91 (0.66-1.26)
Percentage of patients with continued response ([1]; ≥9 months): 32.6%
Percentage of patients with continued response ([1]; ≥12 months): 26.1%
